Among the test systems are U-251; TK-10; MDA-MB-435; SN12C; MCF7; OVCAR-5; MDA-N; HCC 2998; NCI-H226; SNB-19; SF-539; OVCAR-8; RXF 393; UACC-62; HOP-92; MOLT-4; Hs-578T; 786-0; HL-60; HCT-116.
Common to all, as to test: NCI tumour cell line growth inhibition, 48 h

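Compound exposure: 48 hours, 5 concentrations, 96-well plates. GI50 = concentration required for 50% inhibition of growth.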 Calls of active or inactive are those of the source. No stated cut-off is given here; in the data, active = GI50 up to about 1.1 µM and inactive = higher.

Consider `COc1ccc2c(c1)/C(=C\c1c(Cl)[nH]c3cc(C)c(OC)cc13)C(=O)N2`, for which the GI50 is 0.653 µM (active) with U-251; 1.64 µM (inactive) with TK-10; 0.198 µM (active) in the test on MDA-MB-435; 2.09 µM (inactive) with SN12C; 0.41 µM (active) in the test with MCF7; 2.55 µM (inactive) in the test with OVCAR-5. Besides, the GI50 was 0.23 µM (active) in the test on MDA-N; 1.64 µM (inactive) in the test on HCC 2998; 6.04 µM (inactive) in the test on NCI-H226; 1.39 µM (inactive) in the test on SNB-19; 0.266 µM (active) in the test on SF-539; 1.96 µM (inactive) in the test on OVCAR-8. Besides, the GI50 is 0.891 µM (active) in the test on RXF 393; 0.434 µM (active) in the test on UACC-62; 2.14 µM (inactive) in the test on HOP-92; 0.893 µM (active) with MOLT-4; 0.667 µM (active) with Hs-578T; 1.19 µM (inactive) in the test on 786-0. The GI50 with HL-60 was 0.435 µM (active); in the test with HCT-116, 0.979 µM (active).
`COC(=O)C1(Cc2ccccc2C)Cc2ccc(C)cc2C1=O` (stereo not given): the GI50 was 39 µM (inactive) with U-251; 15.5 µM (inactive) with TK-10; 32.3 µM (inactive) in the test with MDA-MB-435; 21.6 µM (inactive) in the test on SN12C; 20 µM (inactive) in the test with MCF7; 89.7 µM (inactive) with OVCAR-5. For the same compound, the GI50 with MDA-N was 29.9 µM (inactive); in the test on HCC 2998, 48 µM (inactive); with NCI-H226, 34.2 µM (inactive); in the test on SNB-19, 64.6 µM (inactive); in the test on SF-539, 37.5 µM (inactive); in the test on OVCAR-8, 47.9 µM (inactive). For the same compound, the GI50 with RXF 393 was 28.6 µM (inactive); in the test with UACC-62 it was 40.6 µM (inactive); in the test with HOP-92, 21.6 µM (inactive); in the test with MOLT-4, 23.6 µM (inactive); with Hs-578T it was 33.2 µM (inactive); with 786-0, 45.6 µM (inactive). Moreover, the results for the GI50 with HL-60 and in the test on HCT-116 were 15.6 µM (inactive) and 27.2 µM (inactive), respectively.

(Values after ChEMBL document CHEMBL1201862, “PubChem BioAssay data set” (2004).)
